{"source": "patent US20230277553A1", "about": "“THERAPEUTIC COMPOSITION OF CURE-PRO COMPOUNDS FOR TARGETED DEGRADATION OF BET DOMAIN PROTEINS, AND METHODS OF MAKING AND USAGE” (CORNELL UNIVERSITY, priority 2020, published 2023)", "target": "BRD4 (Homo sapiens, UniProt O60885)", "test": "Summary of BRD4 degradation by CURE-PRO pairs, estimated from Western Blot or WES (Proteinsimple)", "format": "cell-based", "set-up": "endogenous in cells", "conditions": "for Degradation of BRD4 in combination with VHL ligand [drawing 397]: Table 3, aromatic 1,2-diol-containing VHL ligand, second drawing (8305)", "excerpt": "A black check mark indicates efficacy of 30% to 70% or higher protein degradation.", "data": [{"smiles": "COc1ccc2c(c1)C(c1ccc(Cl)cc1)=N[C@@H](CC(=O)NCCCCCNC(=O)c1ccc(B(O)O)cc1)c1nnc(C)n1-2", "note": "[BRD- E07]", "values": [{"measurement": "Degradation of BRD4 in combination with CRBN ligand [drawing 372]", "setting": "Table 1, CRBN ligand, third drawing (8066)", "result": "✓ (A black check mark indicates efficacy of 30% to 70% or higher protein degradation)"}]}, {"smiles": "COc1ccc2c(c1)C(c1ccc(Cl)cc1)=N[C@@H](CC(=O)NCCNC(=O)Cc1cccc(B(O)O)c1)c1nnc(C)n1-2", "note": "[BRD- E38]", "values": [{"measurement": "Degradation of BRD4 in combination with CRBN ligand [drawing 371]", "setting": "Table 1, CRBN ligand, second drawing (8047)", "result": "✓ (A black check mark indicates efficacy of 30% to 70% or higher protein degradation)"}]}, {"smiles": "CCNC(=O)C[C@@H]1N=C(c2ccc(Cl)cc2)c2cc(OCCOCCNC(=O)c3ccc(B(O)O)cc3)ccc2-n2c(C)nnc21", "note": "[BRD- E39]", "values": [{"measurement": "Degradation of BRD4 in combination with CRBN ligand [drawing 370]", "setting": "Table 1, aromatic 1,2-diol- or hindered cis-1,2-diol-containing CRBN ligand, first drawing (8046)", "result": "✓ (A black check mark indicates efficacy of 30% to 70% or higher protein degradation)"}]}, {"smiles": "CCNC(=O)C[C@@H]1N=C(c2ccc(Cl)cc2)c2cc(OCCOCCOCCNC(=O)c3ccc(O)c(O)c3)ccc2-n2c(C)nnc21", "note": "[BRD- N40]", "values": [{"measurement": "Degradation of BRD4 in combination with aryl-boronic acid-containing VHL ligand", "setting": "Table 6, head shows drawings [drawing 429] and [drawing 430]", "result": "✓ (A black check mark indicates efficacy of 30% to 70% or higher protein degradation)"}]}, {"smiles": "COc1ccc2c(c1)C(c1ccc(Cl)cc1)=N[C@@H](CC(=O)NCCNC(=O)c1cccc(B(O)O)c1)c1nnc(C)n1-2", "note": "[BRD-E2]", "values": [{"measurement": "Degradation of BRD4 in combination with VHL ligand [drawing 397]", "result": "✓ (A black check mark indicates efficacy of 30% to 70% or higher protein degradation)"}]}, {"smiles": "COc1ccc2c(c1)C(c1ccc(Cl)cc1)=N[C@@H](CC(=O)NCc1ccc(B(O)O)cc1)c1nnc(C)n1-2", "note": "[BRD-E09, (4-((2-((4S)-6-(4-chlorophenyl)-8-methoxy-1-methyl-4H-benzo[f][1,2,4]triazolo[4,3-a][1,4]diazepin-4-yl)acetamido)methyl)phenyl)boronic acid]", "values": [{"measurement": "Degradation of BRD4 in combination with VHL ligand [drawing 397]", "result": "✓ (A black check mark indicates efficacy of 30% to 70% or higher protein degradation)"}]}, {"smiles": "CCNC(=O)C[C@@H]1N=C(c2ccc(SCc3ccc(B(O)O)cc3)cc2)c2cc(OC)ccc2-n2c(C)nnc21", "note": "[BRD-E54]", "values": [{"measurement": "Degradation of BRD4 in combination with VHL ligand [drawing 397]", "result": "✓ (A black check mark indicates efficacy of 30% to 70% or higher protein degradation)"}]}, {"smiles": "COc1ccc2c(c1)C(c1ccc(Cl)cc1)=N[C@@H](CC(=O)Nc1ccc(O)c(O)c1)c1nnc(C)n1-2", "note": "[BRD-N68]", "values": [{"measurement": "Degradation of BRD4 in combination with CRBN ligand [drawing 407]", "setting": "Table 4, aryl-boronic acid-containing CRBN ligand, first drawing (by text: 8048)", "result": "✓ (A black check mark indicates efficacy of 30% to 70% or higher protein degradation)"}]}]}
